What was measured:
[1] = target: T1, monoacylglycerol lipase (MAGL) (Homo sapiens, UniProt Q99685); assay: modified Cayman MAGL inhibitor kit, 2-AG hydrolysis to arachidonic acid by HPLC-MS/MS; assay type: biochemical
T1 construct: gene MGLL
T1 sequence (Q99685 1-303): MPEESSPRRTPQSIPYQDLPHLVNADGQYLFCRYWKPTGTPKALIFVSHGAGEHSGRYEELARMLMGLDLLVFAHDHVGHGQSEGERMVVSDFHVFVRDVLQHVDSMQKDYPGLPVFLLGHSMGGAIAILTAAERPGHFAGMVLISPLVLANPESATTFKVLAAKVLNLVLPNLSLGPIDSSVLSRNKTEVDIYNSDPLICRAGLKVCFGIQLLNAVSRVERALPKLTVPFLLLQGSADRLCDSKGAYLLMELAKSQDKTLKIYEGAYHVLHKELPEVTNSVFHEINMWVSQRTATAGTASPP

[2] = target: T1, monoacylglycerol lipase (MAGL); assay: hydrolysis by kit MAGL, arachidonic acid product by HPLC-MS/MS; assay type: biochemical
Procedure: hydrolysis by kit MAGL, arachidonic acid product by HPLC-MS/MS on monoacylglycerol lipase (MAGL) | natural substrate 2-AG, which is hydrolyzed by MAGL to glycerol and AA. AA concentrations were determined using HPLC-MS/MS

## C=C1CC/C=C(\C)CC[C@@H]2[C@@H]1CC2(C)C [BCP, β-Caryophyllene]
[1]
  IC50: 15.8 µM

## CCCCC/C=C\C/C=C\C/C=C\C/C=C\CCCC(=O)OC(CO)CO [2-AG, 2-arachidonoylglycerol]
[2]
  hydrolysis by kit MAGL, arachidonic acid product by HPLC-MS/MS: natural substrate 2-AG, which is hydrolyzed by MAGL to glycerol and AA. AA concentrations were determined using HPLC-MS/MS
